# According to ChEMBL document CHEMBL1139663, “6H-Benzo[c]chromen-6-one derivatives as selective ERbeta agonists” (Bioorg Med Chem Lett, 2006):
# Tests used:
# Estrogen receptor beta [1] = biological target: T1, Estrogen receptor beta (Homo sapiens, UniProt Q92731)
# Description: Binding affinity to ERbeta
# Estrogen receptor = biological target: T2, Estrogen receptor (Homo sapiens, UniProt P03372)
# T2 sequence (P03372 whole entry): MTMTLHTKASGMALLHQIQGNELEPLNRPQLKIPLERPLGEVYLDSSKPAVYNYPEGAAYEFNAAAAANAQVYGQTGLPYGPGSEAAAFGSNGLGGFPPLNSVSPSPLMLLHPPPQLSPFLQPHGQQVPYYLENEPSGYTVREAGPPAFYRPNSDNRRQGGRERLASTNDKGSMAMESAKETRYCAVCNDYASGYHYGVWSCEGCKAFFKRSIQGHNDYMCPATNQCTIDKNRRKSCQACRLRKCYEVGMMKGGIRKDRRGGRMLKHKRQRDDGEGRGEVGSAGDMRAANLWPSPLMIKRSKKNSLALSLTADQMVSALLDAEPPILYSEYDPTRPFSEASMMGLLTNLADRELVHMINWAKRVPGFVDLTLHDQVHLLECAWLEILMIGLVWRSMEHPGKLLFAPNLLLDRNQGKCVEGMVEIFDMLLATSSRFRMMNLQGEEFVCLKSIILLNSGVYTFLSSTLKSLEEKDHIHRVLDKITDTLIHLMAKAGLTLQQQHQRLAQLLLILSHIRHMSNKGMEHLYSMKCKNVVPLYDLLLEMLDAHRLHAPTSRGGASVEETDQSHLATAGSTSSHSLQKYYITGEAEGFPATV
# Description: Binding affinity to ERalpha
# Estrogen receptor beta [2] = biological target: T1, Estrogen receptor beta; remark: listed apart in the source
# Description: Binding affinity to ERbeta in presence of serum
# Estrogen receptor beta [3] = biological target: T1, Estrogen receptor beta; remark: listed apart in the source
# Description: Binding affinity to ERbeta in HTRF coactivator recruitment assay
# T1 sequence (Q92731 whole entry): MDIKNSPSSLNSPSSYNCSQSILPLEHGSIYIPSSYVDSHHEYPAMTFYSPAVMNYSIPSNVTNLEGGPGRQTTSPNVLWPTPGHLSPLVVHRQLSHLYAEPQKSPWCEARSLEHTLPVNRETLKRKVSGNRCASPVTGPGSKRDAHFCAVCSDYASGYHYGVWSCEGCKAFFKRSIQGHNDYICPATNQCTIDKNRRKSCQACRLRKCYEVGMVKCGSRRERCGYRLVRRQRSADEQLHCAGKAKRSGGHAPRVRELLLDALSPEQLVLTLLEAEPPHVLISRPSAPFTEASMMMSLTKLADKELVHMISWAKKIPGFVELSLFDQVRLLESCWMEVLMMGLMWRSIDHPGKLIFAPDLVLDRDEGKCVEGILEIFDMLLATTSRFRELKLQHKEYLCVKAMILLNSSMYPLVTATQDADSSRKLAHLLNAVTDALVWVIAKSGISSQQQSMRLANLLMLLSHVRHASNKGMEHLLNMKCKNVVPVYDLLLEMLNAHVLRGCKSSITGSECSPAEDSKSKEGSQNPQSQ
SMILES,IC50 (Estrogen receptor beta [1]) [nM],IC50 (Estrogen receptor) [nM],IC50 (Estrogen receptor beta [2]) [nM],EC50 (Estrogen receptor beta [3]) [nM]
Cc1c(O)cc(C)c2c1oc(=O)c1cc(O)ccc12,27,488,,
COc1cc2c(=O)oc3c(C)c(O)ccc3c2cc1Br,77,10000,,
CCc1c(O)ccc2c1c(=O)oc1c(C)c(O)ccc12,14,484,,
C=Cc1cccc2c(=O)oc3c(C)c(O)ccc3c12,208,> 10000,,
Cc1c(O)ccc2c1oc(=O)c1c(C)c(O)cc(C)c12,5.7,716,,
Cc1c(O)c(Cl)c(C)c2c1c(=O)oc1c(Cl)c(O)ccc12,22,597,,
Cc1c(O)ccc2c1oc(=O)c1ccccc12,1450,> 10000,,
Cc1c(O)ccc2c1OC(C)c1c-2ccc(O)c1C (stereo not drawn),8,335,,
Cc1cc2c(cc1Br)c(=O)oc1c(C)c(O)ccc12,215,6850,,
CCc1c(O)ccc2c1oc(=O)c1c(C)c(O)ccc12,7.8,229,,
COc1c(C)c(Br)c2c(=O)oc3c(C)c(O)ccc3c2c1C,1.15,225,,
Cc1c(O)ccc2c1c(=O)oc1cc(O)ccc12,49,1170,,
Cc1c(O)ccc2c1oc(=O)c1c(C)c(N)ccc12,279,14300,,
CCC1Oc2c(ccc(O)c2C)-c2ccc(O)c(C)c21 (stereo not drawn),3.2,101,,
C=Cc1cc(C)cc2c(=O)oc3c(C)c(O)ccc3c12,10,10000,1280,> 1000
CC/C=C/c1cc2c(cc1Br)c(=O)oc1c(C)c(O)ccc12,26,1090,,
Cc1cc2c(=O)oc3c(C)c(O)ccc3c2c(C)c1Br,57,> 10000,,
O=c1oc2c(Cl)c(O)ccc2c2cc(F)c(O)c(Cl)c12,180,11600,,
CCc1c(O)ccc2c1c(=O)oc1c(F)c(O)ccc12,21,228,,
Cc1c(O)ccc2c1oc(=O)c1c(C)c(O)ccc12,4.1,159,78,7.2
Cc1c(O)ccc2c1oc(=O)c1cc(O)ccc12,46,654,,
COc1ccc2c(c1C)c(=O)oc1c(C)c(O)ccc12,117,1000,,
CCc1cc(OC)cc2c(=O)oc3c(C)c(O)ccc3c12,69,9830,,
Cc1c(O)ccc2c1COc1c-2ccc(O)c1C,88,4610,,
C=Cc1cc(OC)cc2c(=O)oc3c(C)c(O)ccc3c12,53,> 10000,,

# More lines, in order of falling IC50 (Estrogen receptor beta [1]), values ahead:
IC50 (Estrogen receptor beta [1]) [nM],IC50 (Estrogen receptor) [nM],IC50 (Estrogen receptor beta [2]) [nM],EC50 (Estrogen receptor beta [3]) [nM],SMILES
2340,5460,,,CCc1c(O)ccc2c1oc(=O)c1cc(Br)ccc12
957,> 10000,,,Cc1c(O)ccc2c1oc(=O)c1c(C)c(NC=O)ccc12
433,4260,,,Cc1c(O)ccc2c1oc(=O)c1c(C)c(NS(C)(=O)=O)ccc12
326,> 10000,,,Cc1c(O)ccc2c1oc(=O)c1cccc(C)c12
310,4590,,,C=Cc1ccc2c(c1)c(=O)oc1c(C)c(O)ccc12
308,> 10000,,,COc1ccc2c(c1)c(=O)oc1c(C)c(O)ccc12
128,> 10000,,,Cc1c(O)ccc2c1oc(=O)c1cc(Br)ccc12
116,3030,,,C/C=C/c1cccc2c(=O)oc3c(C)c(O)ccc3c12
93,> 10000,,,Cc1c(O)ccc2c1oc(=O)c1c(C)cccc12
91,1780,,,CCc1cc(O)cc2c(=O)oc3c(C)c(O)ccc3c12
90,585,,,Cc1cc(C)c2c(c1)c(=O)oc1cc(O)ccc12
82,1280,,,Cc1c(O)ccc2c1oc(=O)c1c(O)c(O)ccc12
80,3070,,,Cc1c(O)ccc2c1oc(=O)c1c(C)ccc(C)c12
74,1030,,,Cc1cc(O)cc2c1-c1ccc(O)c(C)c1OC2
67,1860,,,Cc1c(O)ccc2c1c(=O)oc1cc(O)cc(C)c12
67,1920,,,Cc1c(O)ccc2c1c(=O)oc1c(Br)c(O)ccc12
54,583,,,Cc1c(O)ccc2c1oc(=O)c1cc(O)cc(C)c12
54,1580,,,Cc1c(O)ccc2c1c(=O)oc1c(F)c(O)ccc12

IC50 (Estrogen receptor beta [1]) [nM],IC50 (Estrogen receptor) [nM],IC50 (Estrogen receptor beta [2]) [nM],EC50 (Estrogen receptor beta [3]) [nM],SMILES
49,627,,,Cc1cc(O)cc2c1-c1ccc(O)c(C)c1OC2CC(C)C (stereo not drawn)
45,468,,,Cc1c(O)ccc2c1OC(C)(C)c1c-2ccc(O)c1C
44,3120,,,Cc1cc(Br)c2c(c1)c(=O)oc1c(C)c(O)ccc12
35,10000,,,C=CCc1cc(C)cc2c(=O)oc3c(C)c(O)ccc3c12
24,1210,,,Cc1cc(O)cc2c1-c1ccc(O)c(C)c1OC2C (stereo not drawn)
24,597,,,Cc1c(O)ccc2c1oc(=O)c1c(Br)cc(Br)cc12
22,626,,,CCCC1Oc2c(ccc(O)c2C)-c2c(C)cc(O)cc21 (stereo not drawn)
20,3710,,,Cc1cc(C)c2c(c1)c(=O)oc1c(C)c(O)ccc12
19,524,,,Cc1c(O)c(Cl)cc2c1c(=O)oc1c(Cl)c(O)ccc12
18,2520,,,Cc1cc(O)c(Cl)c2c(=O)oc3c(Cl)c(O)ccc3c12
16,4160,,,COc1c(C)cc2c(=O)oc3c(C)c(O)ccc3c2c1C
13,157,,,C=CCC1(C)Oc2c(ccc(O)c2C)-c2c(C)cc(O)c(C)c21 (stereo not drawn)
12,,,,C=Cc1cc(O)cc2c1-c1ccc(O)c(C)c1CC2 [EFFUSOL]
9,237,,,Cc1cc(O)c(C)c2c1-c1ccc(O)c(C)c1OC2C (stereo not drawn)
8,435,,,CCC1Oc2c(ccc(O)c2C)-c2c(C)cc(O)cc21 (stereo not drawn)
6.7,785,,,Cc1c(O)cc(C)c2c1oc(=O)c1c(C)c(O)ccc12
2.3,129,,,CCC1Oc2c(ccc(O)c2C)-c2c(C)cc(O)c(C)c21 (stereo not drawn)
